In patent US8987195B2 (priority 2012, dated 2015):
Where two headings read alike, the source gives them in different places.

Experiments:
[1] = molecular target: HCV NS3/4A protease genotype 1b (Hepatitis C virus genotype 1b, UniProt P26663); assay: HCV NS3/4A protease time-resolved fluorescence (TRF) assay, Ki against genotype 1b; type: biochemical; details: IC50 [gt-1b] (nM), NS3/4A genotype 1b, enzyme 0.2 nM
Outline: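 Time-resolved fluorescence readout of NS3/4A cleavage of 25 nM europium-labelled peptide over 2.5 h at room temperature, enzyme levels set for signal/background 10–30 (0.2, 0.4, 0.025 nM for 1b, A156T, 3a). Ki by IC50=Ki(1+[S]/KM).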

HCV genotype 1b replicon = assay: HCV replicon assay, genotype 1b replicon EC50; type: cell-based, Hepatitis C virus; details: Hepatitis C virus, genotype 1b replicon, read-out: EC50 [gt-1b]
Outline: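 Stable neomycin phosphotransferase-encoding replicon cell lines, kept under G418 selection beforehand, were plated with a compound dilution series without G418 and incubated 24-48 hours. Replicon RNA was then quantified, or luciferase activity read. EC50 was calculated as percent of DMSO control by four-parameter fit.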

Row | Compound | IC50 [1] [nM] | EC50 (HCV genotype 1b replicon) [nM] | IC50 ([1]; K+ salt) [nM] | EC50 (HCV genotype 1b replicon; K+ salt) [nM]
1 | CCc1ccc2nc(C)c3c(c2c1)CC[C@]1(C[C@H]2C(=O)N[C@]4(C(=O)NS(=O)(=O)C5(C)CC5)C[C@H]4/C=C\CCCCC[C@H](NC(=O)OC(C)(C)C)C(=O)N2C1)O3 [Example 313, tert-butyl [(2R,6S,12Z,13aS,14aR,16aS)-9′-ethyl-5′-methyl-14a-{[(1-methylcyclopropyl)sulfonyl]carbamoyl}-5,16-dioxo-1,1′,2′,5,6,7,8,9,10,11,13a,14,14a,15,16,16a-hexadecahydrospiro[cyclopropa[e]pyrrolo[1,2-a][1,4]diazacyclopentadecine-2,3′-pyrano[2,3-c]quinolin]-6-yl]carbamate] | 0.016 | 2.87 | – | –
2 | CCc1ccc2nc(C)c3c(c2c1)CC[C@]1(C[C@H]2C(=O)N[C@]4(C(=O)NS(=O)(=O)C5(C)CC5)C[C@H]4/C=C\CCCCC[C@H](NC(=O)OC(C)(C)C(F)(F)F)C(=O)N2C1)O3 [Example 314, 1,1,1-trifluoro-2-methylpropan-2-yl [(2R,6S,12Z,13aS,14aR,16aS)-9′-ethyl-5′-methyl-14a-{[(1-methylcyclopropyl)sulfonyl]carbamoyl}-5,16-dioxo-1,1′,2′,5,6,7,8,9,10,11,13a,14,14a,15,16,16a-hexadecahydrospiro[cyclopropa[e]pyrrolo[1,2-a][1,4]diazacyclopentadecine-2,3′-pyrano[2,3-c]quinolin]-6-yl]carbamate] | 0.013 | 8.74 | – | –
3 | CC(C)OC(=O)N[C@H]1CCCCC/C=C\[C@@H]2C[C@@]2(C(=O)NS(=O)(=O)C2(C)CC2)NC(=O)[C@@H]2C[C@]3(CCc4c(c(C(F)F)nc5ccccc45)O3)CN2C1=O [Example 317, propan-2-yl [(2R,6S,12Z,13aS,14aR,16aS)-5′-(difluoromethyl)-14a-{[(1-methylcyclopropyl)sulfonyl]carbamoyl}-5,16-dioxo-1,1′,2′,5,6,7,8,9,10,11,13a,14,14a,15,16,16a-hexadecahydrospiro[cyclopropa[e]pyrrolo[1,2-a][1,4]diazacyclopentadecine-2,3′-pyrano[2,3-c]quinolin]-6-yl]carbamate] | 0.023 | 3.25 | – | –
4 | COc1ccc2nc(C)c3c(c2n1)CC[C@]1(C[C@H]2C(=O)N[C@]4(C(=O)NS(=O)(=O)C5(C)CC5)C[C@H]4/C=C\CCCCC[C@H](NC(=O)OC(C)(C)C(F)(F)F)C(=O)N2C1)O3 [Example 318, 1,1,1-trifluoro-2-methylpropan-2-yl [(2R,6S,12Z,13aS,14aR,16aS)-2′-methoxy-6′-methyl-14a-{[(1-methylcyclopropyl)sulfonyl]carbamoyl}-5,16-dioxo-1,5,6,7,8,9,9′,10,10′,11,13a,14,14a,15,16,16a-hexadecahydrospiro[cyclopropa[e]pyrrolo[1,2-a][1,4]diazacyclopentadecine-2,8′-pyrano[2,3-c][1,5]naphthyridin]-6-yl]carbamate] | 0.013 | 4.99 | – | –
5 | Cc1nc2ccc(C(F)(F)F)cc2c2c1O[C@]1(CC2)C[C@H]2C(=O)N[C@]3(C(=O)NS(=O)(=O)C4(C)CC4)C[C@H]3/C=C\CCCCC[C@H](NC(=O)OC(C)(C)C(F)(F)F)C(=O)N2C1 [Example 319, 1,1,1-trifluoro-2-methylpropan-2-yl [(2R,6S,12Z,13aS,14aR,16aS)-5′-methyl-14a-{[(1-methylcyclopropyl)sulfonyl]carbamoyl}-5,16-dioxo-9′-(trifluoromethyl)-1,1′,2′,5,6,7,8,9,10,11,13a,14,14a,15,16,16a-hexadecahydrospiro[cyclopropa[e]pyrrolo[1,2-a][1,4]diazacyclopentadecine-2,3′-pyrano[2,3-c]quinolin]-6-yl]carbamate] | – | – | 0.044 | 17.8
